In publication PMC10468883, “Synthesis and Anticancer Activities of Pyrazole–Thiadiazole-Based EGFR Inhibitors” (ACS Omega, 2023):

Experiments:
NIH3T3 healthy cell line = test: MTT cytotoxicity assay (24 h), healthy cell line NIH3T3; assay type: cell-based; conditions: means of quartet assays
Method: (§1) The principle of the MTT test used to determine the metabolic activity of living cells is based on the reduction of […] 3-(4,5-dimethylthiazol-2-yl)-2,5 diphenyltetrazolium salt to the purple-colored formazan product. Thanks to this color change, the cell viability rate can be determined spectrometrically.[33]Table 1 presents the results of the MTT experiment performed with the 24 h procedure using two cancer lines (A549 and MCF-7) and a healthy cell line (NIH3T3). Doxorubicin is used as a reference drug. MTT assays were performed as previously described.[34]−[36]
(§2) Cytotoxicity assays of compounds 6a–6j were performed with the 24 h MTT procedure. […]. […] […]. […] The selectivity indexes of compounds 6d, 6g, and 6j were calculated as 2.3, 7.23, and 5.68, respectively. […] It can be predicted that the side effect and toxic effect profile of compound 6g will be less than that of compounds 6d and 6j.

A549 cell line = test: MTT cytotoxicity assay (24 h), A549 cell line; assay type: cell-based; conditions: for SI for A549: selectivity index, NIH3T3 vs A549
Method: Thanks to this color change, the cell viability rate can be determined spectrometrically.[33]Table 1 presents the results of the MTT experiment performed with the 24 h procedure using two cancer lines (A549 and MCF-7) and a healthy cell line (NIH3T3). Doxorubicin is used as a reference drug. MTT assays were performed as previously described.[34]−[36] Cytotoxicity assays of compounds 6a–6j were performed with the 24 h MTT procedure. […] These compounds include allyl (6d), phenyl (6g), and 4-chlorophenyl (6j) moieties. […] The selectivity indexes of compounds 6d, 6g, and 6j were calculated as 2.3, 7.23, and 5.68, respectively. […] It can be predicted that the side effect and toxic effect profile of compound 6g will be less than that of compounds 6d and 6j.

MCF-7 cell line = test: MTT cytotoxicity assay (24 h), MCF-7 cell line; assay type: cell-based; conditions: for IC50: MTT, 24 h, MCF-7 cell line, means of quartet assays; for SI for MCF-7: selectivity index, NIH3T3 vs MCF-7
Method: as §1, §2

A549 cells = test: Mitochondrial membrane potential (MMP) by flow cytometry, JC-1 dye; assay type: cell-based; conditions: substance at IC50 concentration, 24 h incubation
Method: In the first step, A549 cells seeded in 25 mL flasks were incubated for 24 h in a 5% CO2 incubator. […] Cells were collected and centrifuged in line with the instructions in the kit at the conclusion of this period. The upper part was removed, JC-1 dye was added, and the mixture was incubated for 10–15 min at 37 °C. The CytoFLEX flow cytometer (Beckman Coulter Life Sciences, USA) and CytExpert for CytoFLEX Acquisition and Analysis Software Version 2.2.0.97 were used to read it after two washings with washing solution at the conclusion of the period.
Both the inhibitory compound and the reference drug were administered at IC50 concentrations. After a 24 h incubation period (5% CO2), mitochondrial membrane potential was determined by flow cytometry using JC-1 dye.

EGFR enzyme = target: T1, EGFR enzyme (Homo sapiens, UniProt P00533); test: EGFR Kinase Assay Kit inhibition assay; assay type: biochemical; conditions: in vitro kit method
T1 construct: purchased
T1 sequence (P00533 25-1210): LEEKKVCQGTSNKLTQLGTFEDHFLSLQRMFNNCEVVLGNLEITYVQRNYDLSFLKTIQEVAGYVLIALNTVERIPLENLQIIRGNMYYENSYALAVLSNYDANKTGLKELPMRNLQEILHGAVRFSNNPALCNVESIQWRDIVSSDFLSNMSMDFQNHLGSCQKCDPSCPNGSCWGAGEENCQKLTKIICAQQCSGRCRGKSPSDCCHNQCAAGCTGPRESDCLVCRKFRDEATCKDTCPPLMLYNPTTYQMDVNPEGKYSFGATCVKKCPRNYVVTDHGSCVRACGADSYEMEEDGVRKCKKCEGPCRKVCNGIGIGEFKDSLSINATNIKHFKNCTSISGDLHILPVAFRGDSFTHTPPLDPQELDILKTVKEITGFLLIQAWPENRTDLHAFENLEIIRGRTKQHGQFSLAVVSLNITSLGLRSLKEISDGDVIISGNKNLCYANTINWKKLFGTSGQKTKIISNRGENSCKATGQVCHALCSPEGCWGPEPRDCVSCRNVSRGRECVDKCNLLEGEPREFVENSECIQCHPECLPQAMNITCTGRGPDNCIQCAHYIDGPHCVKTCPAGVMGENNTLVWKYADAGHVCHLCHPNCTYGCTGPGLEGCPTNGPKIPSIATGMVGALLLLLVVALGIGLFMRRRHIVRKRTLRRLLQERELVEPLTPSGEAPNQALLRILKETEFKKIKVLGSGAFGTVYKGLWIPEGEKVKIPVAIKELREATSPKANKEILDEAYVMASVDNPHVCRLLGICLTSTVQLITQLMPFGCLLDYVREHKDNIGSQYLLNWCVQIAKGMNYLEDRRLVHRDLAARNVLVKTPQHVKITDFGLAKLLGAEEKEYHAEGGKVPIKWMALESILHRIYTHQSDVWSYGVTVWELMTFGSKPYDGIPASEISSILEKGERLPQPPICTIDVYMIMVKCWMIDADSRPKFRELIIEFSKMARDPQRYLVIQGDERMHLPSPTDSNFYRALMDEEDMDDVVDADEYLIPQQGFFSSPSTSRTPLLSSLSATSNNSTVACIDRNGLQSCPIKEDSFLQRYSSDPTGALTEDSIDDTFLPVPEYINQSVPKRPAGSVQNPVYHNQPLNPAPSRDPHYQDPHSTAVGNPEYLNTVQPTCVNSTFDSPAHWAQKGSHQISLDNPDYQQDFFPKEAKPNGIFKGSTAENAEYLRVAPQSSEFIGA
Method: The EGFR Kinase Assay Kit (available from ref ([38])) was used for the EGFR inhibition. The kit protocol was followed, and the experiment was carried out in vitro.
EGFR kinase, which belongs to the ErbB family of tyrosine kinases, is known to regulate the signaling pathways of cell survival, migration, proliferation, differentiation, and adhesion.[52] Inhibition of this member of the tyrosine kinase family, which is a new approach in cancer chemotherapy, is important.

[1] = Homo sapiens, A549, 24 h, MTT, 24 h, A549 cell line, means of quartet assays
[2] = MTT, 24 h, A549 cell line, means of quartet assays

Row | IC50 (EGFR enzyme) | Compound | IC50 (NIH3T3 healthy cell line; Mus musculus, NIH3T3, 24 h) | IC50 (A549 cell line; [1]) | SI for A549 (A549 cell line) | IC50 (MCF-7 cell line; Homo sapiens, MCF7, 24 h) | SI for MCF-7 (MCF-7 cell line) | IC50 (NIH3T3 healthy cell line) | IC50 (A549 cell line; [2]) | IC50 (MCF-7 cell line) | IC50 A549 (A549 cell line; [2]) | mitochondrial membrane potential (P3) (A549 cells)
1 | – | CCNc1nnc(SCC(=O)N2N=C(c3ccccc3)CC2c2ccc([N+](=O)[O-])cc2)s1 (stereo not drawn) [Compound 6a, 2-((5-(Ethylamino)-1,3,4-thiadiazol-2-yl)thio)-1-(5-(4-nitrophenyl)-3-phenyl-4,5-dihydro-1H-pyrazol-1-yl)ethan-1-one] | 86.7 ± 4.07 µM | 13.9 ± 0.25 µM | 6.24 | > 100 µM | <0.87 | – | – | – | – | –
2 | – | CCCNc1nnc(SCC(=O)N2N=C(c3ccccc3)CC2c2ccc([N+](=O)[O-])cc2)s1 (stereo not drawn) [Compound 6b, 1-(5-(4-Nitrophenyl)-3-phenyl-4,5-dihydro-1H-pyrazol-1-yl)-2-((5-(propylamino)-1,3,4-thiadiazol-2-yl)thio)ethan-1-one] | 47.2 ± 4.53 µM | 15.8 ± 0.75 µM | – | 63.4 ± 2.09 µM | – | – | – | – | – | –
3 | – | CC(C)Nc1nnc(SCC(=O)N2N=C(c3ccccc3)CC2c2ccc([N+](=O)[O-])cc2)s1 (stereo not drawn) [Compound 6c, 2-((5-(Isopropylamino)-1,3,4-thiadiazol-2-yl)thio)-1-(5-(4-nitrophenyl)-3-phenyl-4,5-dihydro-1H-pyrazol-1-yl)ethan-1-one] | 33.2 ± 2.37 µM | 27.9 ± 1.28 µM | 1.19 | > 100 µM | <0.33 | – | – | – | – | –
4 | – | C=CCNc1nnc(SCC(=O)N2N=C(c3ccccc3)CC2c2ccc([N+](=O)[O-])cc2)s1 (stereo not drawn) [Compound 6d, 2-((5-(Allylamino)-1,3,4-thiadiazol-2-yl)thio)-1-(5-(4-nitrophenyl)-3-phenyl-4,5-dihydro-1H-pyrazol-1-yl)ethan-1-one] | 11.9 ± 0.486 µM | 5.18 ± 0.164 µM | 2.3 | 35.7 ± 2.24 µM | 0.33 | 11.9 ± 0.49 µM | 5.18 ± 0.16 µM | 35.7 ± 2.24 µM | – | –
5 | – | O=C(CSc1nnc(NC2CCCCC2)s1)N1N=C(c2ccccc2)CC1c1ccc([N+](=O)[O-])cc1 (stereo not drawn) [Compound 6f, 2-((5-(Cyclohexylamino)-1,3,4-thiadiazol-2-yl)thio)-1-(5-(4-nitrophenyl)-3-phenyl-4,5-dihydro-1H-pyrazol-1-yl)ethan-1-one] | 60.5 ± 3.72 µM | > 100 µM | <0.61 | > 100 µM | <0.61 | – | – | – | no activity | –
6 | 0.024 ± 0.002 µM | O=C(CSc1nnc(Nc2ccccc2)s1)N1N=C(c2ccccc2)CC1c1ccc([N+](=O)[O-])cc1 (stereo not drawn) [Compound 6g, 1-(5-(4-Nitrophenyl)-3-phenyl-4,5-dihydro-1H-pyrazol-1-yl)-2-((5-(phenylamino)-1,3,4-thiadiazol-2-yl)thio)ethan-1-one] | 11.1 ± 0.205 µM | – | 7.22 | 15.93 ± 0.054 µM | 0.70 | 11.1 ± 0.21 µM | – | 15.93 ± 0.05 µM | – | 80.93%
7 | – | Cc1ccc(Nc2nnc(SCC(=O)N3N=C(c4ccccc4)CC3c3ccc([N+](=O)[O-])cc3)s2)cc1 (stereo not drawn) [Compound 6h, 1-(5-(4-Nitrophenyl)-3-phenyl-4,5-dihydro-1H-pyrazol-1-yl)-2-((5-(p-tolylamino)-1,3,4-thiadiazol-2-yl)thio)ethan-1-one] | > 100 µM | 29.1 ± 1.01 µM | >3.44 | 92.6 ± 1.89 µM | >1.08 | – | – | – | – | –
8 | – | COc1ccc(Nc2nnc(SCC(=O)N3N=C(c4ccccc4)CC3c3ccc([N+](=O)[O-])cc3)s2)cc1 (stereo not drawn) [Compound 6i, 2-((5-((4-Methoxyphenyl)amino)-1,3,4-thiadiazol-2-yl)thio)-1-(5-(4-nitrophenyl)-3-phenyl-4,5-dihydro-1H-pyrazol-1-yl)ethan-1-one] | > 100 µM | 16.6 ± 0.21 µM | >6.01 | > 100 µM | – | – | – | – | – | –
9 | – | O=C(CSc1nnc(Nc2ccc(Cl)cc2)s1)N1N=C(c2ccccc2)CC1c1ccc([N+](=O)[O-])cc1 (stereo not drawn) [Compound 6j, 2-((5-((4-Chlorophenyl)amino)-1,3,4-thiadiazol-2-yl)thio)-1-(5-(4-nitrophenyl)-3-phenyl-4,5-dihydro-1H-pyrazol-1-yl)ethan-1-one] | 48.3 ± 1.72 µM | 8.49 ± 0.667 µM | 5.68 | 67.2 ± 3.63 µM | 0.72 | – | 8.49 ± 0.67 µM | 67.2 ± 3.63 µM | – | –
10 | – | COc1cccc2c1C(=O)c1c(O)c3c(c(O)c1C2=O)C[C@@](O)(C(=O)CO)C[C@@H]3O[C@H]1C[C@H](N)[C@H](O)[C@H](C)O1 [doxorubicin, reference compound] | > 1000 µM | 2.67 ± 0.12 µM | >374.95 | 1.59 ± 0.1 µM | >629.33 | – | – | – | – | 30.27%
